Experimental data reported in patent US20080070867A1, “2-Imidazolone and 2-Imidazolidinone Heterocyclic Inhibitors of Tyrosine Phosphatases” (Metabasis Therapeutics, Inc., priority 2005, published 2008).

Target: T1, Human recombinant PTP-1B (Homo sapiens, UniProt P18031)
T1 construct: Human recombinant PTP-1B, containing amino acids 1-321, fused to GST enzyme; GST (glutathione S-transferase)
T1 sequence (P18031 1-321): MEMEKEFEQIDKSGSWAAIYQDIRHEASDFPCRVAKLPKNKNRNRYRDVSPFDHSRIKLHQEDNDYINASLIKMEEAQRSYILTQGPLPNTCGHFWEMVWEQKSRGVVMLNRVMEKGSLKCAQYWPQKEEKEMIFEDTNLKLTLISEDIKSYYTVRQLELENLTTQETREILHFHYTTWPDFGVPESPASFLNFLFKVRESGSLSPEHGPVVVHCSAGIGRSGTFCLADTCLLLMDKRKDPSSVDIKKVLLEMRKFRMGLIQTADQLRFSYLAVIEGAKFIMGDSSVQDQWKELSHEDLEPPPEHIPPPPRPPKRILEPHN
Assay: Assay for PTP-1B Activity (pNPP substrate)
Format: biochemical
Details: human recombinant PTP-1B (1-321) GST fusion, 2 mM pNPP, pH 7.4, 30° C., 20 min; read-out: Activity Code (IC50 range)
Description: The activity of the compounds as modulators of protein tyrosine phosphatase, including PTP-1B, may be measured in standard assays (see, e.g., Examples 41 and 42). Briefly, the assay described herein employs human recombinant PTP-1B and a pNPP substrate in a rescue assay.
Assay for PTP-1B Activity
Enzyme: Human recombinant PTP-1B, containing amino acids 1-321, fused to GST enzyme (glutathione S-transferase) purified by affinity chromatography (Huyer et al, 1997, J. Biol. Chem., 272, 843-852).
pNPP: p-Nitrophenyl Phosphate (Calbiochem)
Assay Buffer: 50 mM HEPES (pH 7.4), 100 mM NaCl, 2 mM EDTA, 3 mM DTT
(5×) pNPP substrate: 10 mM pNPP in assay buffer
Enzyme: 1 mg/ml PTP1B (1-321), dilute 1:200 in assay buffer
Assay buffer: 50 mM HEPES (pH 7.4), 100 mM NaCl, 2 mM EDTA, 3 mM DTT
Enzyme dilution buffer: 50 mM HEPES (pH 7.4), 100 mM NaCl, 2 mM EDTA, 3 mM DTT
Substrate 198 mM p-Nitrophenyl Phosphate (pNPP) store at 4° C.
The assay was carried out at 30° C. in 96 well plates. The reaction mixture in 60 ul contained 50 mM HEPES (pH 7.4), 100 mM NaCl, 2 mM EDTA, 3 mM DTT, and 2 mM p-Nitrophenyl Phosphate (pNPP). 5 ul of the test compound (inhibitor) dissolved in DMSO or DMSO alone for control was added to each well and the plate was mixed for 2 min. The reaction was initiated by adding 20 ul of diluted PTP1B (5 ng/ul in 50 mM HEPES (pH 7.4), 100 mM NaCl, 2 mM EDTA, 3 mM DTT). After 20 min at 30° C., the enzyme reaction was terminated by adding 100 ul of 2 M K2CO3 to each well. The phosphatase activity was detected by using Victor II plate reader (Wallac) with absorbance detection at 405 nm. All the assays were done at least in duplicate. The initial rate of pNP is plotted against the concentration of inhibitor.

SMILES	IC50 [nM]
CC(C)(C)C(=O)OCOC(=O)c1ccc(-c2cn(Cc3ccccc3)c(=O)n2Cc2ccc(C(F)(F)P(=O)(O)OCOC(=O)C(C)(C)C)c(Br)c2)cc1 [Compound 53, 4-[1-Benzyl-3-(3-bromo-4-{[(2,2-dimethyl-propionyloxy-methoxy)-hydroxy-phosphoryl]-difluoro-methyl}-benzyl)-2-oxo-2,3-dihydro-1H-imidazol-4-yl]-benzoic acid 2,2-dimethyl-propionyloxymethyl ester]	2500 to 25000
CC(C)(C)C(=O)OCOP(=O)(O)C(F)(F)c1ccc(Cn2c(-c3ccc(C#N)cc3)cn(Cc3ccccc3)c2=O)cc1Br [Compound 56, 2,2-Dimethyl-propionic acid ({4-[3-benzyl-5-(4-cyano-phenyl)-2-oxo-2,3-dihydro-imidazol-1-ylmethyl]-2-bromo-phenyl}-difluoro-methyl)-hydroxy-phosphinoyloxymethyl ester]	2500 to 25000
CC(C)(C)C(=O)OCOP(=O)(OCOC(=O)C(C)(C)C)C(F)(F)c1ccc(Cn2c(-c3ccc(C#N)cc3)cn(Cc3ccccc3)c2=O)cc1Br [Compound 57, 2,2-Dimethyl-propionic acid ({4-[3-benzyl-5-(4-cyano-phenyl)-2-oxo-2,3-dihydro-imidazol-1-ylmethyl]-2-bromo-phenyl}-difluoro-methyl)-(2,2-dimethyl-propionyloxy-methoxy)-phosphinoyloxymethyl ester]	> 25000
CC(C)OC(=O)OC(C)OC(=O)c1ccc(-c2cn(Cc3ccccc3)c(=O)n2Cc2ccc(C(F)(F)P(=O)(O)OC(C)OC(=O)OC(C)C)c(Br)c2)cc1 (stereo not shown) [Compound 59, 4-[1-Benzyl-3-(3-bromo-4-{difluoro-[hydroxy-(1-isopropoxy-carbonyloxy-ethoxy)-phosphoryl]-methyl}-benzyl)-2-oxo-2,3-dihydro-1H-imidazol-4-yl]-benzoic acid 1-isopropoxy-carbonyloxy-ethyl ester]	2500 to 25000
COc1cccc(Cn2ccn(Cc3ccc(C(F)(F)P(=O)(O)O)c(Br)c3)c2=O)c1 [Compound 60, ({2-Bromo-4-[3-(3-methoxy-benzyl)-2-oxo-2,3-dihydro-imidazol-1-ylmethyl]-phenyl}-difluoro-methyl)-phosphonic acid]	2500 to 25000
CC(C)(C)C(=O)OCOP(=O)(O)C(F)(F)c1ccc(Cn2c(-c3ccc(S(C)(=O)=O)cc3)c[nH]c2=O)cc1Br [Compound 64, 2,2-Dimethyl-propionic acid ({2-bromo-4-[5-(4-methanesulfonyl-phenyl)-2-oxo-2,3-dihydro-imidazol-1-ylmethyl]-phenyl}-difluoro-methyl)-hydroxy phosphinoyloxymethyl ester]	2500 to 25000
CC(C)OC(=O)OC(C)OP(=O)(O)C(F)(F)c1ccc(Cn2c(-c3ccc(S(C)(=O)=O)cc3)c[nH]c2=O)cc1Br (stereo not shown) [Compound 65, ({2-Bromo-4-[5-(4-methanesulfonyl-phenyl)-2-oxo-2,3-dihydro-imidazol-1-ylmethyl]phenyl}-difluoro-methyl) phosphonic acid mono-(1-isopropoxy-carbonyloxy-ethyl) ester]	2500 to 25000
CCOC(=O)n1cc(-c2ccc(C(=O)OC)cc2)n(Cc2ccc(C(F)(F)P(=O)(O)OCOC(=O)C(C)(C)C)c(Br)c2)c1=O [Compound 66, 3-(3-Bromo-4-{[(2,2-dimethyl-propionyloxy-methoxy)-hydroxy-phosphoryl]-difluoro-methyl}-benzyl)-4-(4-methoxycarbonyl-phenyl)-2-oxo-2,3-dihydro-imidazole-1-carboxylic acid ethyl ester]	> 25000
Cn1cc(-c2ccc(S(C)(=O)=O)cc2)n(Cc2ccc(C(F)(F)P(=O)(O)OCOC(=O)C(C)(C)C)c(Br)c2)c1=O [Compound 69, 2,2-Dimethyl-propionic acid ({2-bromo-4-[5-(4-methanesulfonyl-phenyl)-3-methyl-2-oxo-2,3-dihydro-imidazol-1-ylmethyl]-phenyl}-difluoro-methyl)-hydroxy-phosphinoyloxymethyl ester]	2500 to 25000
CC(C)OC(=O)OC(C)OP(=O)(O)C(F)(F)c1ccc(Cn2c(-c3ccc(S(C)(=O)=O)cc3)cn(C)c2=O)cc1Br (stereo not shown) [Compound 70, ({2-Bromo-4-[5-(4-methanesulfonyl-phenyl)-3-methyl-2-oxo-2,3-dihydro-imidazol-1-ylmethyl]-phenyl}-difluoro-methyl)-phosphonic acid mono-(1-isopropoxy-carbonyloxy-ethyl) ester]	> 25000

Further lines, results first:

IC50 [nM]	SMILES
< 99	O=C(O)COc1ccc(-c2cn(C3CC3)c(=O)n2Cc2ccc(C(F)(F)P(=O)(O)O)c(Br)c2)cc1 [Compound 52, (4-{3-[3-Bromo-4-(difluoro-phosphono-methyl)-benzyl]-1-cyclopropyl-2-oxo-2,3-dihydro-1H-imidazol-4-yl}-phenoxy)-acetic acid]
100 to 249	COC(=O)c1ccc(Cn2cc(-c3ccccc3)n(Cc3ccc(C(F)(F)P(=O)(O)O)c(Br)c3)c2=O)cc1 [Compound 54, 4-{3-[3-Bromo-4-(difluoro-phosphono-methyl)-benzyl]-2-oxo-4-phenyl-2,3-dihydro-imidazol-1-ylmethyl}-benzoic acid methyl ester]
250 to 2500	O=C(O)c1ccc(Cn2cc(-c3ccccc3)n(Cc3ccc(C(F)(F)P(=O)(O)O)c(Br)c3)c2=O)cc1 [Compound 55, 4-{3-[3-Bromo-4-(difluoro-phosphono-methyl)-benzyl]-2-oxo-4-phenyl-2,3-dihydro-imidazol-1-ylmethyl}-benzoic acid]
250 to 2500	CS(=O)(=O)c1ccc(Cn2cc(-c3ccccc3)n(Cc3ccc(C(F)(F)P(=O)(O)O)c(Br)c3)c2=O)cc1 [Compound 58, ({2-Bromo-4-[3-(4-methanesulfonyl-benzyl)-2-oxo-5-phenyl-2,3-dihydro-imidazol-1-ylmethyl]-phenyl}-difluoro-methyl)-phosphonic acid]
250 to 2500	CCOC(=O)c1ccc(-n2ccn(Cc3ccc(C(F)(F)P(=O)(O)O)c(Br)c3)c2=O)cc1 [Compound 61, 4-{3-[3-Bromo-4-(difluoro-phosphono-methyl)-benzyl]-2-oxo-2,3-dihydro-imidazol-1-yl}-benzoic acid ethyl ester]
250 to 2500	COC(=O)c1cccc(-c2cn(C3CC3)c(=O)n2Cc2ccc(C(F)(F)P(=O)(O)O)c(Br)c2)c1 [Compound 62, 3-{3-[3-Bromo-4-(difluoro-phosphono-methyl)-benzyl]-1-cyclopropyl-2-oxo-2,3-dihydro-1H-imidazol-4-yl}-benzoic acid methyl ester]
250 to 2500	O=C(O)c1cccc(-c2cn(C3CC3)c(=O)n2Cc2ccc(C(F)(F)P(=O)(O)O)c(Br)c2)c1 [Compound 63, 3-{3-[3-Bromo-4-(difluoro-phosphono-methyl)-benzyl]-1-cyclopropyl-2-oxo-2,3-dihydro-1H-imidazol-4-yl}-benzoic acid]
250 to 2500	COC(=O)c1ccc(-c2cn(Cc3ccc(C(F)(F)P(=O)(O)O)c(Br)c3)c(=O)n2Cc2ccccc2)cc1 [Compound 67, 4-{3-Benzyl-1-[3-bromo-4-(difluoro-phosphono-methyl)-benzyl]-2-oxo-2,3-dihydro-1H-imidazol-4-yl}-benzoic acid methyl ester]
250 to 2500	O=C(O)c1ccc(-c2cn(Cc3ccc(C(F)(F)P(=O)(O)O)c(Br)c3)c(=O)n2Cc2ccccc2)cc1 [Compound 68, 4-{3-Benzyl-1-[3-bromo-4-(difluoro-phosphono-methyl)-benzyl]-2-oxo-2,3-dihydro-1H-imidazol-4-yl}-benzoic acid]
